Measured values as given in patent US8697641B2, “4-amino-4-oxobutanoyl peptide cyclic analogues, inhibitors of viral replication” (Achillion Pharmaceuticals, Inc., priority 2008, dated 2014).

The compounds below were run on Hepatitis C replicon (assay: HCV replicon assay (NPT ELISA readout) in Huh-7 replicon-containing cells). Details: Hepatitis C virus, 72 h; HCV replicon in Huh-7 cells, three days incubation.
Type: cell-based, Hepatitis C virus
Description: Compounds claimed herein are tested for the ability to inhibit viral replication of the Hepatitis C replicon in cultured cells in which the HCV replicon construct has been incorporated. The HCV replicon system was described by Bartenschlager, et. al (Science, 285, pp. 110-113 (1999)). The replicon system is predictive of in vivo anti-HCV activity; compounds that are active in humans uniformly evidence activity in the replicon assay.
In this assay HCV replicon containing cells are treated with different concentrations of the test compound to ascertain the ability of the test compound to suppress replication of the HCV replicon. As a positive control, HCV replicon-containing cells are treated with different concentrations of interferon alpha, a known inhibitor of HCV replication. The replicon assay system includes Neomycin Phosphotransferase (NPT) as a component of the replicon itself in order to detect the transcription of replicon gene products in the host cell. Cells in which the HCV replicon is actively replicating have high levels of NPT; the level of NPT is proportional to HCV replication. […] The NPT level of each sample is measured using a captured ELISA.
A protocol for testing compounds for the ability to inhibit viral replication of the Hepatitis C replicon cultured cells in which the replicon construct has been incorporated, follows.
The HCV replicon contains, 5′-3′, the HCV-IRES, the neomycin phosphotransferase (neo) gene, the IRES of encephalomyocarditis virus, which directs translation of HCV sequences NS3 to NS5B, and the 3′-NTR. The sequence of the HCV replicon has been deposited in GenBank (Accession no. AJ242652).
The replicon is transfected into Huh-7 cells using standard methods such as electroporation.
The equipment and materials include, but are not limited to, Huh-7 HCV replicon-containing cells, maintenance media (DMEM (Dulbecco's modified Eagle media) supplemented with 10% FBS, L-glutamine, non-essential amino acids, penicillin (100 units/ml), streptomycin (100 micrograms/ml), and 500 micrograms/ml of Geneticin (G418), screening media (DMEM supplemented with 10% FBS, L-glutamine, non-essential amino acids, penicillin (100 units/ml) and streptomycin (100 micrograms/ml)), 96 well tissue culture plates (flat bottom), 96 well plates (U bottom for drug dilution), Interferon alpha for positive control, fixation reagent (such as methanol:acetone), primary antibody (rabbit anti-NPTII), secondary antibody: Eu-N1 l, and enhancement solution.
The cells are then seeded onto 96-well plates at a density of 6000-7500 cells/100 microliters/well (6-7.5×10^5 cells/10 ml/plate). The plates are then incubated at 37° C. in a 5% CO2 incubator.
HCV replicon-containing cells are rinsed with once PBS once; 2 mls of trypsin are then added. Cells are incubated at 37° C. in a 5% CO2 incubator for 3-5 minutes. 10 mls of complete medium is added to stop the reaction. Cells are blown gently, put into a 15 ml tube, and spun at 1200 rpm for four minutes. The trypsin/medium solution is removed and 5 mls of medium (500 ml DMEM (high glucose)) from BRL catalog #12430-054; 50 mls 10% FBS, 5% Geneticin G418 (50 mg/ml, BRL catalog #10131-035), 5 ml MEM non-essential amino acids (100×BRL #11140-050) and 5 ml pen-strep (BRL #15140-148) is added. The cells and media are mixed carefully
Cells are plated with screening medium (500 ml DMEM (BRL #21063-029), 50 ml FBS (BRL #10082-147) and 5 ml MEM non-essential amino acid (BRL #11140-050) at 6000-7500 fcells/100 μl/well of 96 well plate (6-7.5×10^5 cells/10 ml/plate). Plates are placed into 37° C. 5% CO2 incubator overnight.
The following morning, drugs (test compounds or interferon alpha) are diluted in 96 well U bottom plates with media or DMSO/media, depending on the final concentration chosen for screening. Generally for 6 concentrations of each test compounds ranging from 10 micromolar to 0.03 micromolar are applied. […]

Q: Which EC50 does the source give for `COc1ccc2c(O[C@@H]3C[C@H]4C(=O)N[C@]5(C(=O)NS(=O)(=O)C6CC6)C[C@H]5/C=C\CCCCC[C@H](CC(=O)N5CCCC5)C(=O)N4C3)cc(-c3ccccc3)nc2c1` [Compound 55, (2R,6R,13aS, 14aR,16aS,Z)-N-(cyclopropylsulfonyl)-2-(7-methoxy-2-phenylquinolin-4-yloxy)-5,16-dioxo-6-(2-oxo-2-(pyrrolidin-1-yl)ethyl)-1,2,3,5,6,7,8,9,10,11, 13a,14,14a,15,16,16a-hexadecahydrocyclopropa [e]pyrrolo[1,2-a][1,4] diazacyclopentadecine-14a-carboxamide] here?
A: < 1000 nM

Q: How did the EC50 turn out when `O=C1N[C@]2(C(=O)NS(=O)(=O)C3CC3)C[C@H]2/C=C\CCCCC[C@H](CC(=O)N2CCC(C(F)(F)F)CC2)C(=O)N2C[C@H](Oc3cc(-c4ccccn4)nc4c5c(ccc34)CCC5)C[C@@H]12` [Compound 125, (2R,6R,13aS,16aS,Z)-N-(cyclopropylsulfonyl)-5,16-dioxo-6-(2-oxo-2-(4-(trifluoromethyl)piperidin-1-yl)ethyl)-2-(2-(pyridin-2-yl)-8,9-dihydro-7H-cyclopenta[h]quinolin-4-yloxy)-1,2,3,5,6,7,8,9,10,11, 13a,14,14a,15,16,16a-hexadecahydrocyclopropa [e]pyrrolo[1,2-a][1,4] diazacyclopentadecine-14a-carboxamide] was run?
A: < 1000 nM

Q: For `COc1ccc2c(O[C@@H]3C[C@H]4C(=O)N[C@]5(C(=O)NS(=O)(=O)C6CC6)C[C@H]5/C=C\CCCCC[C@H](CC(=O)N5CC(C)OC(C)C5)C(=O)N4C3)cc(-c3ccccc3)nc2c1` (stereo partly drawn) [Compound 76, (2R,6R,13aS, 14aR,16aS,Z)-N-(cyclopropylsulfonyl)-6-(2-(2,6-dimethylmorpholino)-2-oxoethyl)-2-(7-methoxy-2-phenylquinolin-4-yloxy)-5,16-dioxo-1,2,3,5,6,7,8,9,10,11, 13a,14,14a,15,16,16a-hexadecahydrocyclopropa [e]pyrrolo[1,2-a][1,4] diazacyclopentadecine-14a-carboxamide], which EC50 is on record?
A: < 1000 nM

Q: With `COc1ccc2c(O[C@@H]3C[C@H]4C(=O)N[C@]5(C(=O)NS(=O)(=O)C6CC6)C[C@H]5/C=C\CCCCC[C@H](CC(=O)N5CCN(C(=O)OC(C)(C)C)CC5)C(=O)N4C3)cc(-c3ccccc3)nc2c1` [Compound 67, tert-butyl 4-(2-((2R,6R, 13aS,14aR,16aS,Z)-14a-(cyclopropylsulfonyl-carbamoyl)-2-(7-methoxy-2-phenylquinolin-4-yloxy)-5,16-dioxo-1,2,3,5,6,7,8,9,10,11, 13a,14,14a,15,16,16a-hexadecahydrocyclopropa [e]pyrrolo[1,2-a][1,4]diazacyclopentadecin-6-yl)acetyl)piperazine-1-carboxylate] as the compound, how does the EC50 read?
A: < 1000 nM

Q: Which EC50 does the source give for `O=C1N[C@]2(C(=O)NS(=O)(=O)C3CC3)C[C@H]2/C=C\CCCCC[C@H](CC(=O)N2CCC(F)(F)C2)C(=O)N2C[C@H](OC(=O)N3CCc4ccccc4C3)C[C@@H]12` [Compound 114, (2R,6R,14aR, 16aS,Z)-14a-(cyclopropylsulfonyl-carbamoyl)-6-(2-(3,3-difluoropyrrolidin-1-yl)-2-oxoethyl)-5,16-dioxo-1,2,3,5,6,7,8,9,10,11, 13a,14,14a,15,16,16a-hexadecahydrocyclopropa [e]pyrrolo[1,2-a][1,4] diazacyclopentadecin-2-yl 3,4-dihydroisoquinoline-2(1H)-carboxylate] here?
A: < 1000 nM

Q: With `COc1ccc2c(O[C@@H]3C[C@H]4C(=O)N[C@]5(C(=O)NS(=O)(=O)C6CC6)C[C@H]5/C=C\CCCCC[C@H](CC(=O)N5CCC(F)(F)CC5)C(=O)N4C3)cc(-c3ccccc3)nc2c1` [Compound 61, (2R,6R,13aS, 14aR,16aS,Z)-N-(cyclopropylsulfonyl)-6-(2-(4,4-difluoropiperidin-1-yl)-2-oxoethyl)-2-(7-methoxy-2-phenylquinolin-4-yloxy)-5,16-dioxo-1,2,3,5,6,7,8,9,10,11, 13a,14,14a,15,16,16a-hexadecahydrocyclopropa [e]pyrrolo[1,2-a][1,4] diazacyclopentadecine-14a-carboxamide] as the compound, how does the EC50 read?
A: < 1000 nM

Q: With `O=C1N[C@]2(C(=O)NS(=O)(=O)C3CC3)C[C@H]2/C=C\CCCCC[C@H](CC(=O)N2CCCCC2)C(=O)N2C[C@H](Oc3cc(-c4ccccn4)nc4c5c(ccc34)OCC5)C[C@@H]12` [Compound 84, (2R,6R,14aR,16aS,Z)-N-(cyclopropylsulfonyl)-5,16-dioxo-6-(2-oxo-2-(piperidin-1-yl)ethyl)-2-(2-(pyridin-2-yl)-8,9-dihydrofuro[2,3-h]quinolin-4-yloxy)-1,2,3,5,6,7,8,9,10,11, 13a,14,14a,15,16,16a-hexadecahydrocyclopropa [e]pyrrolo[1,2-a][1,4] diazacyclopentadecine-14a-carboxamide] as the compound, how does the EC50 read?
A: > 10000 nM

Q: For `COc1ccc2c(O[C@@H]3C[C@H]4C(=O)N[C@]5(C(=O)NS(=O)(=O)C6CC6)C[C@H]5/C=C\CCCCC[C@H](CC(=O)N5CCN(c6cnccn6)CC5)C(=O)N4C3)cc(-c3ccccc3)nc2c1` [Compound 87, (2R,6R,14aR,16aS,Z)-N-(cyclopropylsulfonyl)-2-(7-methoxy-2-phenylquinolin-4-yloxy)-5,16-dioxo-6-(2-oxo-2-(4-(pyrazin-2-yl)piperazin-1-yl)ethyl)-1,2,3,5,6,7,8,9,10,11, 13a,14,14a,15,16,16a-hexadecahydrocyclopropa [e]pyrrolo[1,2-a][1,4] diazacyclopentadecine-14a-carboxamide], which EC50 is on record?
A: < 1000 nM

Q: With `O=C1N[C@]2(C(=O)NS(=O)(=O)C3CC3)C[C@H]2/C=C\CCCCC[C@H](CC(=O)N2CCCCC2)C(=O)N2C[C@H](OC(=O)N3CCc4ccccc4C3)C[C@@H]12` [Compound 112, (2R,6R,14aR, 16aS,Z)-14a-(cyclopropylsulfonyl-carbamoyl)-5,16-dioxo-6-(2-oxo-2-(piperidin-1-yl)ethyl)-1,2,3,5,6,7,8,9,10,11, 13a,14,14a,15,16,16a-hexadecahydrocyclopropa [e]pyrrolo[1,2-a][1,4] diazacyclopentadecin-2-yl 3,4-dihydroisoquinoline-2(1H)-carboxylate] as the compound, how does the EC50 read?
A: < 1000 nM

Q: Which EC50 does the source give for `COc1ccc2c(O[C@@H]3C[C@H]4C(=O)N[C@@](C)(C(=O)NS(=O)(=O)C5CC5)C/C=C\CCCCC[C@H](CC(=O)N5CCCCC5)C(=O)N4C3)cc(-c3ccccc3)nc2c1` [Compound 65, (3R,12R,16R,17aS,Z)-N-(cyclopropylsulfonyl)-16-(7-methoxy-2-phenylquinolin-4-yloxy)-3-methyl-1,13-dioxo-12-(2-oxo-2-(piperidin-1-yl)ethyl)-2,3,4,7,8,9,10, 11,12,13,15,16,17,17a-tetradecahydro-1H-pyrrolo[1,2-a][1,4] diazacyclopentadecine-3-carboxamide] here?
A: 1000 to 10000 nM

Q: With `O=C1N[C@]2(C(=O)NS(=O)(=O)C3CC3)C[C@H]2/C=C\CCCCC[C@H](CC(=O)N2CCC(C(F)(F)F)CC2)C(=O)N2C[C@H](Oc3cc(-c4ccccn4)nc4c5c(ccc34)OCC5)C[C@@H]12` [Compound 83, (2R,6R,14aR,16aS,Z)-N-(cyclopropylsulfonyl)-5,16-dioxo-6-(2-oxo-2-(4-(trifluoromethyl)piperidin-1-yl)ethyl)-2-(2-(pyridin-2-yl)-8,9-dihydrofuro[2,3-h]quinolin-4-yloxy)-1,2,3,5,6,7,8,9,10,11, 13a,14,14a,15,16,16a-hexadecahydrocyclopropa [e]pyrrolo[1,2-a][1,4] diazacyclopentadecine-14a-carboxamide] as the compound, how does the EC50 read?
A: < 1000 nM
